Results reported in patent US9630935B2, “Compositions for the treatment of hypertension and/or fibrosis” (Vectus Biosystems Limited, priority 2013, dated 2017).

How the values were obtained:
[1] = system: spontaneous hypertensive rats (SHR); assay: Oral study in SHR on 2.2% salt diet: myocardial fibrosis, histomorphometry on Masson's trichrome stained sections; assay type: in vivo, rat; details: for Fibrosis in the heart: 18 week old SHR on 2.2% salt diet, 4 weeks treatment, 500 pmol/kg/min orally, compared to controls (FIG. 16); for Histological sections from the hearts (micrographs): rats on 2.2% salt diet treated four weeks with 500 pmol/kg/min, control has extensive fibrosis (FIG. 20)
Description: (§1) Fourteen week old SHR (on a 2.2% salt diet; Glen Forrest Stockfeeders) were randomly assigned to zero time control, test compound treatment (100 or 500 pmol/kg/min) in the drinking solution or control drinking solution (5% ethanol in deionised distilled water (n=5 each group). The rats assigned to zero time control group were anaesthetised and had their heart and kidneys harvested while rats assigned to control and test compound treatment were weighed twice weekly and had their drinking solution intake monitored to allow adjustment of the test compound concentration in the drinking solution to maintain a constant dose over the 4-week study period. Blood pressure was measured twice weekly by tail cuff plethysmography (PowerLab, ADInstruments, Castle Hill, NSW, Australia).
(§2) After 4 weeks rats were anaesthetised, and their hearts and kidneys harvested for quantitation of fibrosis.
(§3) To quantitate tissue fibrosis tissue slices ≦3 mm thick were fixed in 10% buffered formalin for 24 hours, processed and embedded in paraffin. Three micron transverse sections were stained using Masson's trichrome stain. A minimum of […] random fields at magnification ×20 from transverse sections (5 at each of 2 levels) were digitized and the degree of fibrosis determined as a percent of field area of each digitized image using Image-Pro Plus V.7 (Media Cybernetics, Bethesda, Md., USA) then averaged to determine the level of fibrosis for tissue for each rat.

[2] = system: spontaneous hypertensive rats (SHR); assay: Oral study in SHR on 2.2% salt diet: kidney interstitial fibrosis, histomorphometry on Masson's trichrome stained sections; assay type: in vivo, rat; details: for Fibrosis in the kidney: 18 week old SHR on 2.2% salt diet, 4 weeks treatment, 500 pmol/kg/min orally, compared to controls (FIG. 17); for Histological sections from the kidneys (micrographs): rats on 2.2% salt diet treated four weeks with 500 pmol/kg/min, control has extensive fibrosis (FIG. 21)
Description: as §1, §2, §3

[3] = system: spontaneous hypertensive rats (SHR); assay: Oral study in SHR on 2.2% salt diet: blood pressure by tail cuff plethysmography; assay type: in vivo, rat; details: 4 weeks treatment, 100 or 500 pmol/kg/min orally in drinking solution, compared to controls (FIG. 13)
Description: as §1

| Structure (SMILES) | Fibrosis in the heart [1] | Fibrosis in the kidney [2] | melting point | Mean systolic blood pressure [3] | Histological sections from the hearts (micrographs) [1] | Histological sections from the kidneys (micrographs) [2] | Mean diastolic blood pressure [3] |
| --- | --- | --- | --- | --- | --- | --- | --- |
| NC(=O)CCc1cc(-c2ccccc2)ccc1-c1ccnc(N)c1 [T48, 3-(4-(2-Aminopyridin-4-yl)-[1, 1′-biphenyl]-3-yl)propanamide] | decreased compared to controls | decreased compared to controls | 248 to 249 °C | decreased blood pressure compared to controls | – | – | – |
| NC(=O)CCc1cc(-c2ccccc2)ccc1-c1cc(O)cc(O)c1 [T20, 3-(3,5-Dihydroxy-[1,1′:4′,1″-terphenyl]-2′-yl)propanamide] | decreased compared to controls | decreased compared to controls | 232 to 233 °C | decreased blood pressure compared to controls | no discrete areas of fibrosis are present | fibrosis has been reduced to thin bands incompletely surrounding some but not all tubules | – |
| CS(=O)(=O)Nc1cc(NS(C)(=O)=O)cc(-c2ccc(-c3ccccc3)cc2CCC(N)=O)c1 [T70, 3-(3,5-Di(methylsulfonamido)-[1,1′:4′,1″-terphenyl]-2′-yl)propanamide] | decreased compared to controls | decreased compared to controls | – | decreased blood pressure compared to controls | – | – | decreased compared to controls |
| NC(=O)CCc1cc(-c2ccccc2)ccc1-c1ccc2[nH]c(=O)[nH]c2c1 [T31, 3-(4-(2-Oxo-2,3-dihydro-1H-benzo[d]imidazol-5-yl)-[1,1′-biphenyl]-3-yl)propanamide] | decreased compared to controls | decreased compared to controls | 250 to 251 °C | decreased blood pressure compared to controls | no discrete areas of fibrosis are present | fibrosis has been reduced to thin bands incompletely surrounding some but not all tubules | decreased compared to controls |
| NC(=O)CCc1cc(-c2ccccc2)ccc1-c1cccc(NC=O)c1 [T2, 3-(3-Formamido-[1,1′:4′,1″-terphenyl]-2′-yl)propanamide] | decreased compared to controls | decreased compared to controls | – | decreased blood pressure compared to controls | no discrete areas of fibrosis are present | fibrosis has been reduced to thin bands incompletely surrounding some but not all tubules | decreased compared to controls |
| NC(=O)CCc1cc(-c2ccccc2)ccc1-c1ccc2c(c1)NC(=O)C2 [T25, 3-(4-(2-Oxoindolin-6-yl)-[1,1′-biphenyl]-3-yl)propanamide] | – | – | 219 to 222 °C | – | – | – | – |
| CS(=O)(=O)Nc1cccc(-c2ccc(-c3ccccc3)cc2CCC(N)=O)c1 [T1, 3-(3-(Methylsulfonamido)-[1,1′:4′,1″-terphenyl]-2′-yl)propanamide] | decreased compared to controls | decreased compared to controls | – | decreased blood pressure compared to controls | no discrete areas of fibrosis are present | fibrosis has been reduced to thin bands incompletely surrounding some but not all tubules | decreased compared to controls |
